Results published in patent publication US20210023065A1, “AMPHIPHILIC THIOL COMPOUNDS AND USES THEREOF” (THE REGENTS OF THE UNIVERSITY OF CALIFORNIA, priority 2018, published 2021).

How the values were obtained:
Type in all cases: cell-based
[1] = biological target: T1, endogenous HRas (Homo sapiens, UniProt P01112); assay: Acyl resin-assisted capture detection of HRas palmitoylation in HeLa cells; details: for depalmitoylation of HRas: HeLa cells, 20 min, 1 at 1.25 μmol/10^7 cells, same experiments with TCEP alone or compound 2
T1 construct: endogenous in cells; host or cells: HeLa
Method: HeLa cells were grown to confluency in 10 cm plates. Stock solutions of compounds were prepared in DMSO as before and diluted to the final indicated concentration in 5.5 mL of OptiMEM media before adding to cells. Cells were incubated at 37° C. for 20 min and then media removed and 3 mL of HBSS added to each plate. Cells were detached using a cell scraper, pelleted by centrifugation at 1,000 rcf for 5 min and the pellet processed using a CAPTUREome S-Palmitoylated Protein Kit (Badrilla, UK) according to the manufacturer's protocol. Samples were resolved by electrophoresis using 4-20% SDS-polyacrylamide gels (Bio-Rad) under denaturing and reducing conditions. Proteins were then electrotransferred to a PVDF membrane (Bio-Rad). The membrane was blocked with 3% BSA and then subjected to immunoblot analysis using Anti-GTPase HRAS antibody (ab97488) (Abcam), Calnexin Antibody (2433S) (Cell Signaling Technology), Gα(i) Antibody (5290S) (Cell Signaling Technology), SNAP25 Antibody (5308S) (Cell Signaling Technology), Flotillin-2 Antibody (3436S) (Cell Signaling Technology), CD44 Antibody (3570S) (Cell Signaling Technology), Lyric/Metadherin Antibody (14065S) (Cell Signaling Technology), Flotillin-1 Antibody (3253S) (Cell Signaling Technology) and secondary goat anti-rabbit IgG-HRP (sc-2030) (Santa Cruz Biotechnology) or goat anti-mouse IgG HRP (ThermoFisher). Chemiluminescent detection was performed by using SuperSignal West Pico PLUS chemiluminescent substrate (ThermoFisher) according to the manufacturer's instructions.
(§1) Assays were performed in 3 biological replicates. Each replicate involved the analysis of 4 to 5 conditions side-by-side. Western blots were analyzed using ImageJ^1. The intensity of the protein band in each cleaved bound fraction (palmitoylated protein fraction) was normalized to the intensity of the corresponding input fraction (total protein fraction). The values within individual S 4 replicates were normalized to the control or vehicle condition and reported as means±SD. An unpaired t test was performed to determine the significance between means.

[2] = biological target: T2, EGFP-HRas (Homo sapiens, UniProt P01112); assay: Live-cell imaging of EGFP-HRas localization in HeLa cells; details: HeLa cells, 1.25 μmol/10^7 cells, 20 min
T2 construct: host or cells: HeLa
Method: Imaging was performed on an Axio Observer Z1 inverted microscope (Carl Zeiss Microscopy Gmb, Germany) with Yokogawa CSU-X1 spinning disk confocal unit using a 63×, 1.4 NA oil immersion or 20×, 0.8 NA objective to an ORCA-Flash4.0 V2 Digital CMOS camera (Hamamatsu, Japan). For live cell imaging, an incubation chamber with temperature and CO2 controllers (World Precision Instruments) was utilized. Fluorophores were excited with s diode laser (488 nm; 30 mW). Images were acquired using Zen Blue software (Carl Zeiss) and processed using Image J.^1
HeLa cells were plated at 40,000 cells/well in an 8-well Lab-Tek chamber slide (ThermoFisher) and allowed to adhere overnight. Cells were transfected with mEGFP-HRas or mEGFP-KRas4b using Lipofectamine 2000 (ThermoFisher) according to the manufacturer's protocol. 50 mM stocks of compounds 1 and 2 were prepared by dissolving the solid compound in DMSO containing 100 mM tris(2-S 3 carboxyethyl)phosphine hydrochloride (TCEP) as a preservative. From these stocks, a solution of 200 μM [1 or 2] (with 400 μM TCEP), or 400 μM TCEP was prepared in OptiMEM media. Before imaging, cells were exchanged into OptiMEM media. The diluted solutions were added to the indicated final concentration within individual wells of the chamber slide and cells imaged while maintaining 37° C., 5% CO2 in the incubation chamber. Images were acquired in 6 different locations across a minimum of 2 independent experiments. […] An unpaired t test was performed to determine the significance of the means before and after treatment.

[3] = biological target: T3, GAP43 (Homo sapiens, UniProt P17677); assay: Acyl resin-assisted capture detection of GAP43 palmitoylation in INCL lymphoblasts; details: 0.05 μmol/10^7 cells, 24 h
T3 construct: Western blot detection of endogenous GAP43 in acyl resin-assisted capture fractions; host or cells: INCL human lymphoblasts
T3 sequence (P17677 1-238): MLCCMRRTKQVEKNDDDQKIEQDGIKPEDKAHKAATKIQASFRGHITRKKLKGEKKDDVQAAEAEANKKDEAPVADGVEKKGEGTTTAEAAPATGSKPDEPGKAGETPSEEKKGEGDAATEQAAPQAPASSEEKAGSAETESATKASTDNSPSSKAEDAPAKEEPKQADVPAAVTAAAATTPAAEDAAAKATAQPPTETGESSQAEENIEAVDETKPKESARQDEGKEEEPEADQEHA
Method: INCL Lymphoblasts were adjusted to 1,000,000 cells/mL in 20 mL of OptiMem Media. Stock solutions of compounds were prepared in DMSO as before and diluted to the indicated final concentration in the cell suspension. […] Cells were pelleted by centrifugation at 1,000 rcf for 5 min and the pellet processed using a CAPTUREome S-Palmitoylated Protein Kit (Badrilla, UK) according to the manufacturer's protocol. Samples were resolved by electrophoresis using 4-20% SDS-polyacrylamide gels (Bio-Rad) under denaturing and reducing conditions. Proteins were then electrotransferred to a PVDF membrane (Bio-Rad). The membrane was blocked with 3% BSA and then subjected to immunoblot analysis using GAP-43 (B-5) Antibody (sc-17790) (Santa Cruz Biotechnology) and secondary antibody goat anti-mouse IgG HRP (ThermoFisher). Chemiluminescent detection was performed by using SuperSignal West Pico PLUS chemiluminescent substrate (ThermoFisher) according to the manufacturer's instructions.
as §1

T1 sequence (P01112 whole entry): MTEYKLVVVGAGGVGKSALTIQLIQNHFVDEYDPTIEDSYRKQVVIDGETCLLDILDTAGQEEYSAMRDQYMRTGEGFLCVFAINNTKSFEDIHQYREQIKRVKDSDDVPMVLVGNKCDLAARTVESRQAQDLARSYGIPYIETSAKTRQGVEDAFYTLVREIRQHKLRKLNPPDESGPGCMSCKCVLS
T2 sequence (P01112 1-186 limits assumed): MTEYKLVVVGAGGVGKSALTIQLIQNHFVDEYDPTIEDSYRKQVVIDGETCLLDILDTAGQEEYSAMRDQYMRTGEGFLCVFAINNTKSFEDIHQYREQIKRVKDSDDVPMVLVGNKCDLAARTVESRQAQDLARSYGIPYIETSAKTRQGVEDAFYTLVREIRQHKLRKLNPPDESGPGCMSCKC

| Compound | depalmitoylation of HRas by PB alone ([1]; HeLa cells treated with PB, without 1) | EGFP-HRas localization at the plasma membrane (fluorescence) [2] | depalmitoylation of HRas [1] | level of GAP43 palmitoylation [3] |
| --- | --- | --- | --- | --- |
| CCCCCCCCCC[C@@H]1C(=O)O[C@H]1CCc1ccc(OC)c(OC)c1 [PB, palmostatin B, reference compound] | no significant depalmitoylation |  |  |  |
| Cl.O=C(O)CCP(CCC(=O)O)CCC(=O)O [TCEP, tris(2-carboxyethyl)phosphine hydrochloride, reference compound] |  | no change in fluorescence localization | no significant depalmitoylation | did not result in a significant change |
| CCCCCCCCNC(=O)[C@@H](N)CO [compound 2, H2N-L-Ser-Oct, reference compound] |  | no change in fluorescence localization | no significant depalmitoylation | did not result in a significant change |
